Activity and viability data for 1 compound are collected here from ChEMBL document CHEMBL4706659, “Design, synthesis and biological evaluation of novel 2,4-diaryl pyrimidine derivatives as selective EGFR inhibitors” (Eur J Med Chem, 2021).

A value given as a limit tells only on which side of the number the result lay.

The test system of series [1] is NCI-H1975. The experiment in a line: Induction of apoptosis in human NCI-H1975 cells harboring EGFR T790M/L858R mutant assessed as late apoptotic cells at 5 nM measured after 48 hrs by Annexin-V-FITC/propidium iodide staining based flow cytometry (reference value: 0.04%). The class given is functional. Background: In flow cytometry, cells or beads pass a laser one at a time.

Series [2] deals with NCI-H1975. The experiment in a line: Induction of mitochondrial membrane potential loss in human NCI-H1975 cells harboring EGFR T790M/L858R mutant measured after 24 hrs by JC1 staining based fluorescence microscopic analysis. To be noted: dose 1-10 nM. Type of series: functional, cell-based.
The subject of series [3] is NCI-H1975. The experiment in a line: Induction of apoptosis in human NCI-H1975 cells harboring EGFR T790M/L858R mutant assessed as viable cells at 10 nM measured after 48 hrs by Annexin-V-FITC/propidium iodide staining based flow cytometry (reference value: 98.63%). The class given is functional. To be noted: read-out: Activity.
A short description of series [4]: Toxicity in nude mouse xenografted with human NCI-H1975 cells harboring EGFR T790M/L858R mutant assessed as body weight loss at 15 mg/kg, po administered once daily for 7 days relative to control. Type of series: organism-based. As to conditions: in vivo, 168 h, time 7 day. (Xenograft models place foreign cells or tissue in a host animal.)

As to `C=CC(=O)Nc1cc(Nc2nccc(-c3cn(C4CC4)c4ccccc34)n2)c(OC)cc1[S+]([O-])CCN(C)C` (centres undefined), the Activity in the series with NCI-H1975 [1] was 3.64%; in the series with NCI-H1975 [2], “Dose-dependent effect”; in series [4], less than 5%. In addition, in the series on NCI-H1975 [3], the viability at 0.01 µM was 41.1%.
